Results taken from PMC2990605 (British Journal of Cancer, 2010).

Test: Adverse events (CTCAEv3.0), worst grade per patient regardless of relation, and laboratory parameters
Type: in vivo
Details: for Alanine aminotransferase increased, CTCAE grade 5, patients / Alopecia, CTCAE grade 5, patients / Anaemia, CTCAE grade 5, patients / Anorexia, CTCAE grade 5, patients / Arthralgia, CTCAE grade 5, patients / Back pain, CTCAE grade 5, patients / Blood bilirubin, CTCAE grade 5, patients / Bronchitis, CTCAE grade 5, patients / Constipation, CTCAE grade 5, patients / Cough, CTCAE grade 5, patients / Cystitis, CTCAE grade 5, patients / Dehydration, CTCAE grade 5, patients / Diabetes mellitus, CTCAE grade 5, patients / Diarrhoea, CTCAE grade 5, patients / Dizziness, CTCAE grade 5, patients / Drug hypersensitivity, CTCAE grade 5, patients / Dry skin, CTCAE grade 5, patients / Dyspnoea, CTCAE grade 5, patients / Eosinophilic myocarditis, CTCAE grade 5, patients / Erythema, CTCAE grade 5, patients / Fatigue, CTCAE grade 5, patients / Gastric dilatation, CTCAE grade 5, patients / General physical health deterioration, CTCAE grade 5, patients / Hypercalcaemia, CTCAE grade 5, patients / Hyperglycaemia, CTCAE grade 5, patients / Hyperhidrosis, CTCAE grade 5, patients / Leukopenia, CTCAE grade 5, patients / Malaise, CTCAE grade 5, patients / Mucosal inflammation, CTCAE grade 5, patients / Myalgia, CTCAE grade 5, patients / Nasopharyngitis, CTCAE grade 5, patients / Nausea, CTCAE grade 5, patients / Neutropenia, CTCAE grade 5, patients / Oedema peripheral, CTCAE grade 5, patients / Oedema, CTCAE grade 5, patients / Peripheral sensory neuropathy, CTCAE grade 5, patients / Pollakiuria, CTCAE grade 5, patients / Pruritus, CTCAE grade 5, patients / Pulmonary embolism, CTCAE grade 5, patients / Pyrexia, CTCAE grade 5, patients / Rash, CTCAE grade 5, patients / Spinal cord compression, CTCAE grade 5, patients / Tumour pain, CTCAE grade 5, patients / Urinary tract infection, CTCAE grade 5, patients / Vomiting, CTCAE grade 5, patients / γ-glutamyltransferase increased, CTCAE grade 5, patients: with paclitaxel
Procedure: Toxicity was evaluated according to common toxicity criteria for adverse events (CTCAEv3.0). The MTD was defined as the dose level(s) at which at least two out of six patients developed DLT.
Toxicity assessment, haematology and clinical biochemistry were performed at baseline and weekly during the study. Physical and ECOG performance status were recorded at baseline and before the next cycle.

CC(C)C[C@@H](C(=O)N[C@H](C(=O)OC1CCCC1)c1ccccc1)[C@H](O)C(=O)NO [tosedostat]
Alanine aminotransferase increased, CTCAE grade 5, patients (all cycles): 0
Alopecia, CTCAE grade 5, patients (all cycles): 0
Anaemia, CTCAE grade 5, patients (all cycles): 0
Anorexia, CTCAE grade 5, patients (all cycles): 0
Arthralgia, CTCAE grade 5, patients (all cycles): 0
Back pain, CTCAE grade 5, patients (all cycles): 0
Blood bilirubin, CTCAE grade 5, patients (all cycles): 0
Bronchitis, CTCAE grade 5, patients (all cycles): 0
Constipation, CTCAE grade 5, patients (all cycles): 0
Cough, CTCAE grade 5, patients (all cycles): 0
Cystitis, CTCAE grade 5, patients (all cycles): 0
Dehydration, CTCAE grade 5, patients (all cycles): 0
Diabetes mellitus, CTCAE grade 5, patients (all cycles): 0
Diarrhoea, CTCAE grade 5, patients (all cycles): 0
Dizziness, CTCAE grade 5, patients (all cycles): 0
Drug hypersensitivity, CTCAE grade 5, patients (all cycles): 0
Dry skin, CTCAE grade 5, patients (all cycles): 0
Dyspnoea, CTCAE grade 5, patients (all cycles): 0
Eosinophilic myocarditis, CTCAE grade 5, patients (all cycles): 1
Erythema, CTCAE grade 5, patients (all cycles): 0
Fatigue, CTCAE grade 5, patients (all cycles): 0
Gastric dilatation, CTCAE grade 5, patients (all cycles): 0
General physical health deterioration, CTCAE grade 5, patients (all cycles): 0
Hypercalcaemia, CTCAE grade 5, patients (all cycles): 0
Hyperglycaemia, CTCAE grade 5, patients (all cycles): 0
Hyperhidrosis, CTCAE grade 5, patients (all cycles): 0
Leukopenia, CTCAE grade 5, patients (all cycles): 0
Malaise, CTCAE grade 5, patients (all cycles): 0
Mucosal inflammation, CTCAE grade 5, patients (all cycles): 0
Myalgia, CTCAE grade 5, patients (all cycles): 0
Nasopharyngitis, CTCAE grade 5, patients (all cycles): 0
Nausea, CTCAE grade 5, patients (all cycles): 0
Neutropenia, CTCAE grade 5, patients (all cycles): 0
Oedema peripheral, CTCAE grade 5, patients (all cycles): 0
Oedema, CTCAE grade 5, patients (all cycles): 0
Peripheral sensory neuropathy, CTCAE grade 5, patients (all cycles): 0
Pollakiuria, CTCAE grade 5, patients (all cycles): 0
Pruritus, CTCAE grade 5, patients (all cycles): 0
Pulmonary embolism, CTCAE grade 5, patients (all cycles): 0
Pyrexia, CTCAE grade 5, patients (all cycles): 0
Rash, CTCAE grade 5, patients (all cycles): 0
Spinal cord compression, CTCAE grade 5, patients (all cycles): 0
Tumour pain, CTCAE grade 5, patients (all cycles): 0
Urinary tract infection, CTCAE grade 5, patients (all cycles): 0
Vomiting, CTCAE grade 5, patients (all cycles): 0
γ-glutamyltransferase increased, CTCAE grade 5, patients (all cycles): 0
Alanine aminotransferase increased, CTCAE grade 5, patients (first 21 days): 0
Alopecia, CTCAE grade 5, patients (first 21 days): 0
Anaemia, CTCAE grade 5, patients (first 21 days): 0
Anorexia, CTCAE grade 5, patients (first 21 days): 0
Arthralgia, CTCAE grade 5, patients (first 21 days): 0
Back pain, CTCAE grade 5, patients (first 21 days): 0
Blood bilirubin, CTCAE grade 5, patients (first 21 days): 0
Bronchitis, CTCAE grade 5, patients (first 21 days): 0
Constipation, CTCAE grade 5, patients (first 21 days): 0
Cough, CTCAE grade 5, patients (first 21 days): 0
Cystitis, CTCAE grade 5, patients (first 21 days): 0
Dehydration, CTCAE grade 5, patients (first 21 days): 0
Diabetes mellitus, CTCAE grade 5, patients (first 21 days): 0
Diarrhoea, CTCAE grade 5, patients (first 21 days): 0
Dizziness, CTCAE grade 5, patients (first 21 days): 0
Drug hypersensitivity, CTCAE grade 5, patients (first 21 days): 0
Dry skin, CTCAE grade 5, patients (first 21 days): 0
Dyspnoea, CTCAE grade 5, patients (first 21 days): 0
Eosinophilic myocarditis, CTCAE grade 5, patients (first 21 days): 0
Erythema, CTCAE grade 5, patients (first 21 days): 0
Fatigue, CTCAE grade 5, patients (first 21 days): 0
Gastric dilatation, CTCAE grade 5, patients (first 21 days): 0
General physical health deterioration, CTCAE grade 5, patients (first 21 days): 0
Hypercalcaemia, CTCAE grade 5, patients (first 21 days): 0
Hyperglycaemia, CTCAE grade 5, patients (first 21 days): 0
Hyperhidrosis, CTCAE grade 5, patients (first 21 days): 0
Leukopenia, CTCAE grade 5, patients (first 21 days): 0
Malaise, CTCAE grade 5, patients (first 21 days): 0
Mucosal inflammation, CTCAE grade 5, patients (first 21 days): 0
Myalgia, CTCAE grade 5, patients (first 21 days): 0
Nasopharyngitis, CTCAE grade 5, patients (first 21 days): 0
Nausea, CTCAE grade 5, patients (first 21 days): 0
Neutropenia, CTCAE grade 5, patients (first 21 days): 0
Oedema peripheral, CTCAE grade 5, patients (first 21 days): 0
Oedema, CTCAE grade 5, patients (first 21 days): 0
Peripheral sensory neuropathy, CTCAE grade 5, patients (first 21 days): 0
Pollakiuria, CTCAE grade 5, patients (first 21 days): 0
Pruritus, CTCAE grade 5, patients (first 21 days): 0
Pulmonary embolism, CTCAE grade 5, patients (first 21 days): 0
Pyrexia, CTCAE grade 5, patients (first 21 days): 0
Rash, CTCAE grade 5, patients (first 21 days): 0
Spinal cord compression, CTCAE grade 5, patients (first 21 days): 0
Tumour pain, CTCAE grade 5, patients (first 21 days): 0
Urinary tract infection, CTCAE grade 5, patients (first 21 days): 0
Vomiting, CTCAE grade 5, patients (first 21 days): 0
γ-glutamyltransferase increased, CTCAE grade 5, patients (first 21 days): 0
Alanine aminotransferase increased, CTCAE grade 1, patients (human, in vivo): 1
Alanine aminotransferase increased, CTCAE grade 2, patients (human, in vivo): 1
Alanine aminotransferase increased, CTCAE grade 3, patients (human, in vivo): 1
Alanine aminotransferase increased, CTCAE grade 4, patients (human, in vivo): 0
Alanine aminotransferase increased, patients with events, % (human, in vivo): 14%
Alopecia, CTCAE grade 2, patients (human, in vivo): 20
Alopecia, CTCAE grade 3, patients (human, in vivo): 0
Alopecia, CTCAE grade 4, patients (human, in vivo): 0
Alopecia, patients with events, % (human, in vivo): 95%
Anaemia, CTCAE grade 1, patients (human, in vivo): 1
Anaemia, CTCAE grade 4, patients (human, in vivo): 0
Anorexia, CTCAE grade 1, patients (human, in vivo): 6
Anorexia, CTCAE grade 2, patients (human, in vivo): 2
Anorexia, CTCAE grade 3, patients (human, in vivo): 2
Anorexia, CTCAE grade 4, patients (human, in vivo): 0
Anorexia, patients with events, % (human, in vivo): 45%
Arthralgia, CTCAE grade 1, patients (human, in vivo): 5
Arthralgia, CTCAE grade 2, patients (human, in vivo): 0
Arthralgia, CTCAE grade 3, patients (human, in vivo): 0
Arthralgia, CTCAE grade 4, patients (human, in vivo): 0
Arthralgia, patients with events, % (human, in vivo): 23%
Back pain, CTCAE grade 1, patients (human, in vivo): 3
Back pain, CTCAE grade 2, patients (human, in vivo): 2
Back pain, CTCAE grade 3, patients (human, in vivo): 0
Back pain, CTCAE grade 4, patients (human, in vivo): 0
Back pain, patients with events, % (human, in vivo): 23%
Blood bilirubin, CTCAE grade 1, patients (human, in vivo): 0
Blood bilirubin, CTCAE grade 2, patients (human, in vivo): 0
Blood bilirubin, CTCAE grade 3, patients (human, in vivo): 1
Blood bilirubin, CTCAE grade 4, patients (human, in vivo): 0
Blood bilirubin, patients with events, % (human, in vivo): 5%
Bronchitis, CTCAE grade 1, patients (human, in vivo): 0
Bronchitis, CTCAE grade 2, patients (human, in vivo): 0
Bronchitis, CTCAE grade 3, patients (human, in vivo): 1
Bronchitis, CTCAE grade 4, patients (human, in vivo): 0
Bronchitis, patients with events, % (human, in vivo): 5%
Constipation, CTCAE grade 1, patients (human, in vivo): 3
Constipation, CTCAE grade 2, patients (human, in vivo): 3
Constipation, CTCAE grade 3, patients (human, in vivo): 0
Constipation, CTCAE grade 4, patients (human, in vivo): 0
Constipation, patients with events, % (human, in vivo): 27%
Cough, CTCAE grade 1, patients (human, in vivo): 8
Cough, CTCAE grade 2, patients (human, in vivo): 1
